Experimental findings from patent US20250100988A1, “PREPARATION OF A COMPOUND FOR THE TREATMENT OF GOUT OR HYPERURICEMIA” (Arthrosi Therapeutics, Inc., priority 2021, published 2025) are described below.

SMILES strings stand for the structures.

The nature of this series: Solubility of test articles in HBSS assay buffer. To be noted: at all tested concentrations; highest tested concentration 10 μM.

Method: Before the experiment, the medium was removed and the cells were washed twice with 100 μL of HBSS without Cl^−. Uptake experiments were carried out at 37±1° C. in 50 μL of HBSS without Cl^−, pH 7.4 containing the probe substrate (20 μM uric acid) and the test article (TA) or solvent.

With `CCc1oc2ccccc2c1C(=O)c1cc(Br)c(O)c(Br)c1` [Benzbromarone], the “solubility in HBSS buffer” value was “soluble”.

On to `[2H]c1c([2H])c([2H])c2c(C(=O)c3cc(Br)c(O)c(Br)c3)c(C(C)O)oc2c1[2H]` (centres unmarked) [Compound 1, (3,5-dibromo-4-hydroxyphenyl)(2-(1-hydroxyethyl)benzofuran-3-yl-4,5,6,7-d4)methanone], for which the “solubility in HBSS buffer” value is “soluble”.
